Values of other authors in US11252971B2, “Antimicrobial packaging films” (Cryovac, LLC, priority 2017, dated 2022).

Details: GRAS by the U.S. Food and Drug Administration

## CCCCCCCCCCCC(=O)N[C@@H](CCCNC(=N)N)C(=O)OCC.Cl [LAE, ethyl-N^α-dodecanoyl-L-arginate.HCl]
  Toxicity: nontoxic
